Reference: EPA's ToxRefDB 2

Columns and labels:
mouse [1] = details: Carcinogenicity; cd1; Oral; Feed; dose end: 87 week; group: systemic; systemic / clinical chemistry / alanine aminotransferase (alt/sgpt) / alanine aminotransferase (alt/sgpt) + systemic / clinical chemistry / …
rabbit [2] = details: Prenatal developmental toxicity study; new zealand white; Oral; Gavage/Intubation; dose end: 18 GD; group: maternal; systemic / in life observation / body weight / body weight gain + systemic / in life observation / clinical signs / anorexia + systemic / in…
rat [3] = details: Prenatal developmental toxicity study, other, Oral, Gavage/Intubation, dose end: 15 GD
rat [4] = details: Subchronic oral toxicity in rodents, other, Feed, dose end: 13 week, group: systemic, systemic / organ weight / liver / relative to body weight + systemic / organ weight / thymus / absolute + systemic / organ weight / thymus…
rat [5] = details: Subchronic oral toxicity in rodents, sprague dawley, Diet, dose end: 13 week, group: systemic
rabbit [6] = details: Prenatal developmental toxicity study; new zealand white; Oral; Gavage/Intubation; dose end: 19 GD; group: maternal; reproductive / reproductive performance / aborted / aborted + reproductive / reproductive performance / resorptions / resorptions + systemic…
rat [7] = details: Multigenerational reproductive toxicity study, sprague dawley, Oral, Feed, dose end: 2 generation
rat [8] = details: Subchronic oral toxicity in rodents, long evans, Feed, dose end: 13 week, group: systemic, systemic / organ weight / liver / absolute + systemic / organ weight / liver / relative to body weight + systemic / pathology microscopic / …
dog = details: Chronic toxicity, beagle, Oral, Feed, dose end: 104 week, group: systemic
mouse [9] = details: Subchronic oral toxicity in rodents, b6c3f1, Feed, dose end: 14 week
mouse [10] = details: Carcinogenicity; b6c3f1; Oral; Feed; dose end: 105 week; group: systemic; systemic / pathology microscopic / liver / eosinophilic focus + systemic / pathology microscopic / liver / hypertrophy + systemic / …
rat [11] = details: Subchronic oral toxicity in rodents, fischer, Feed, dose end: 14 week, group: systemic, systemic / organ weight / liver / absolute + systemic / organ weight / liver / relative to body weight + systemic / hematology / platelet / …
rat [12] = details: Developmental neurotoxicity study; sprague dawley; Oral; Gavage/Intubation; dose end: 91 PND; group: cannot be grouped; systemic / in life observation / body weight / offspring (pup) weight
rat [13] = details: Carcinogenicity; fischer; Oral; Feed; dose end: 104 week; group: systemic; systemic / pathology microscopic / liver / hypertrophy + systemic / pathology microscopic / liver / vacuolization cytoplasmic + systemic / …
rat [14] = details: Prenatal developmental toxicity study, sprague dawley, Oral, Gavage/Intubation, dose end: 19 GD
mouse [15] = details: Carcinogenicity, b6c3f1, Oral, Feed, dose end: 18 month, group: systemic
rat [16] = details: Combined chronic toxicity/carcinogenicity; fischer; Oral; Feed; dose end: 2 year; group: systemic; systemic / clinical chemistry / alkaline phosphatase (alp/alk) / alkaline phosphatase (alp/alk) + systemic / clinical chemistry / globulins…
rat [17] = details: Multigenerational reproductive toxicity study, sprague dawley, Oral, Feed, dose end: 2 generation; remark: listed apart in the source
[18] = group: developmental, developmental / developmental malformation / bone / bent + developmental / developmental malformation / bone / fused + developmental / …
[19] = group: maternal, systemic / in life observation / clinical signs / defecation + systemic / in life observation / clinical signs / defecation (diarrhea) + …
[20] = systemic / in life observation / clinical signs / anemia - microcytic + systemic / urinalysis / volume / volume + systemic / clinical …
[21] = group: offspring, systemic / in life observation / body weight / offspring (pup) weight + systemic / in life observation / body weight / offspring (pup) …
[22] = group: parental, systemic / pathology microscopic / kidney / hyperplasia + systemic / pathology microscopic / kidney / mineralization + systemic / pathology …
[23] = group: reproductive, reproductive / offspring survival early / birth index / live birth index
[24] = systemic / clinical chemistry / alkaline phosphatase (alp/alk) / alkaline phosphatase (alp/alk) + systemic / in life observation / body …
[25] = systemic / in life observation / body weight / body weight gain + systemic / organ weight / liver / absolute + systemic / organ weight / …
[26] = group: maternal, reproductive / reproductive performance / estrous cycle / length
[27] = group: systemic, systemic / in life observation / clinical signs / ataxia + systemic / in life observation / clinical signs / lethargy + systemic / in life …
[28] = group: developmental, developmental / developmental malformation / bone / incomplete ossification + developmental / developmental malformation / brain / dilated …
[29] = group: maternal, systemic / in life observation / clinical signs / piloerection + systemic / in life observation / clinical signs / salivation
[30] = group: maternal, systemic / in life observation / clinical signs / piloerection + systemic / in life observation / clinical signs / salivation + reproductive…
[31] = systemic / organ weight / liver / absolute + systemic / in life observation / body weight / body weight
[32] = systemic / organ weight / liver / absolute + systemic / in life observation / body weight / body weight + systemic / organ weight / liver / …
[33] = group: offspring, developmental / offspring survival late / viability index / viability index + systemic / pathology microscopic / kidney / dilatation
[34] = group: offspring, developmental / offspring survival late / viability index / viability index + systemic / pathology microscopic / kidney / dilatation + …
[35] = group: parental, systemic / pathology microscopic / kidney / dilatation + systemic / in life observation / body weight / body weight + systemic / in life …

## CCOc1cc(Oc2ccc(C(F)(F)F)cc2Cl)ccc1[N+](=O)[O-] [Oxyfluorfen]
Mouse [1]
  LEL: 33 mg/kg/day
  LOAEL: 33 mg/kg/day
  NEL: 3 mg/kg/day
  NOAEL: 3 mg/kg/day
Rabbit [2]
  LEL: 30 mg/kg/day
  LOAEL: 30 mg/kg/day
  NEL: 10 mg/kg/day
  NOAEL: 10 mg/kg/day
Rat [3]; [18]
  LEL: 183 mg/kg/day
  LOAEL: 183 mg/kg/day
  NEL: 18 mg/kg/day
  NOAEL: 18 mg/kg/day
Rat [3]; [19]
  LEL: 183 mg/kg/day
  LOAEL: 183 mg/kg/day
  NEL: 18 mg/kg/day
  NOAEL: 18 mg/kg/day
Rat [4]
  LEL: 71 mg/kg/day
  LOAEL: 71 mg/kg/day
  NEL: 14 mg/kg/day
  NOAEL: 14 mg/kg/day
Rat [5]; systemic / hematology / mean corpuscular (cell) volume (mcv) / mean corpuscular (cell) volume (mcv) + systemic / hematology / mean …
  LEL: 144 mg/kg/day
Rat [5]; systemic / in life observation / clinical signs / anemia - microcytic + systemic / urinalysis / volume / volume
  LOAEL: 585 mg/kg/day
Rat [5]; [20]
  NEL: 46.7 mg/kg/day
  NOAEL: 144 mg/kg/day
Rabbit [6]
  LEL: 90 mg/kg/day
  LOAEL: 90 mg/kg/day
  NEL: 30 mg/kg/day
  NOAEL: 30 mg/kg/day
Rat [7]; [21]
  LEL: 146 mg/kg/day
  LOAEL: 146 mg/kg/day
  NEL: 36.4 mg/kg/day
  NOAEL: 36.4 mg/kg/day
Rat [7]; [22]
  LEL: 120 mg/kg/day
  LOAEL: 120 mg/kg/day
  NEL: 30.9 mg/kg/day
  NOAEL: 30.9 mg/kg/day
Rat [7]; [23]
  LEL: 146 mg/kg/day
  LOAEL: 146 mg/kg/day
  NEL: 36.4 mg/kg/day
  NOAEL: 36.4 mg/kg/day
Rat [8]
  LEL: 51.4 mg/kg/day
  LOAEL: 51.4 mg/kg/day
  NEL: < 51.4 mg/kg/day
  NOAEL: < 51.4 mg/kg/day
dog; [24]
  LOAEL: 18.5 mg/kg/day
  NOAEL: 3.1 mg/kg/day
dog; [25]
  LEL: 3 mg/kg/day
  NEL: < 3 mg/kg/day

## CCC1(c2ccccc2)C(=O)NCNC1=O [Primidone]
Mouse [9]; [26]
  LEL: 220 mg/kg/day
  LOAEL: > 1100 mg/kg/day
  NEL: 120 mg/kg/day
  NOAEL: ≥ 1100 mg/kg/day
Mouse [9]; [27]
  LOAEL: > 1000 mg/kg/day
  NEL: 50 mg/kg/day
  NOAEL: ≥ 1000 mg/kg/day
Mouse [9]; group: systemic, systemic / organ weight / liver / absolute + systemic / organ weight / liver / relative to body weight + systemic / pathology microscopic / …
  LEL: 100 mg/kg/day
Mouse [10]
  LEL: 25 mg/kg/day
  LOAEL: 25 mg/kg/day
  NEL: < 25 mg/kg/day
  NOAEL: < 25 mg/kg/day
Rat [11]
  LEL: 20 mg/kg/day
  LOAEL: > 400 mg/kg/day
  NEL: < 20 mg/kg/day
  NOAEL: ≥ 400 mg/kg/day
Rat [12]
  LEL: 40 mg/kg/day
  LOAEL: > 80 mg/kg/day
  NEL: < 40 mg/kg/day
  NOAEL: ≥ 80 mg/kg/day
Rat [13]
  LEL: 25 mg/kg/day
  LOAEL: 25 mg/kg/day
  NEL: < 25 mg/kg/day
  NOAEL: < 25 mg/kg/day

## O=C([O-])c1cc(Oc2ccc(C(F)(F)F)cc2Cl)ccc1[N+](=O)[O-].[Na+] [Acifluorfen-sodium]
Rat [14]; [28]
  LEL: 90 mg/kg/day
  LOAEL: 90 mg/kg/day
  NEL: 20 mg/kg/day
  NOAEL: 20 mg/kg/day
Rat [14]; [29]
  LEL: 90 mg/kg/day
  LOAEL: 90 mg/kg/day
Rat [14]; [30]
  NEL: 20 mg/kg/day
  NOAEL: 20 mg/kg/day
Mouse [15]; [31]
  LOAEL: 119 mg/kg/day
  NOAEL: < 119 mg/kg/day
Mouse [15]; [32]
  LEL: 119 mg/kg/day
  NEL: < 119 mg/kg/day
Rat [16]
  LEL: 125 mg/kg/day
  LOAEL: 125 mg/kg/day
  NEL: 25 mg/kg/day
  NOAEL: 25 mg/kg/day
Rat [17]; [33]
  LEL: 50 mg/kg/day
  LOAEL: 50 mg/kg/day
Rat [17]; [34]
  NEL: 2.5 mg/kg/day
  NOAEL: 2.5 mg/kg/day
Rat [17]; group: parental, systemic / pathology microscopic / kidney / dilatation
  LOAEL: 50 mg/kg/day
Rat [17]; [35]
  NEL: 2.5 mg/kg/day
  NOAEL: 2.5 mg/kg/day
Rat [17]; group: parental, systemic / pathology microscopic / kidney / dilatation + systemic / in life observation / body weight / body weight gain
  LEL: 50 mg/kg/day
